Measurements published in the supplement of paper PMC10307832.

Columns and labels:
Experiment in all cases: relative viability (nuclei count vs DMSO), 5 days (fraction); higher = more cells survive
[1] = compound: C1COCCN1C2=NC(=NC3=C2OC4=C3C=CC=N4)C5=CC(=CC=C5)NC(=O)C6=CN=C(C=C6)N + NC(=O)Nc1cc(-c2cccc(F)c2)sc1C(=O)N[C@H]1CCCNC1 [AZD7762] (partner 0.2 µM)
Outline: (§1)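 Lung cancer cell lines were pin-tool dosed in 1536-well plates on the day after seeding, with either a lone drug or a fixed anchor-drug dose plus five library-drug doses (not always all listed) in √10 steps. Nuclei were counted on 4× images after 5 days. Relative viability is the ratio of treated-well to vehicle-well nuclei counts, with each value a median of duplicate plates.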

[2] = compound: C1COCCN1C2=NC(=NC3=C2OC4=C3C=CC=N4)C5=CC(=CC=C5)NC(=O)C6=CN=C(C=C6)N + O=C(CCCCCCC(=O)Nc1ccccc1)NO [Vorinostat] (partner 1 µM)
Outline: as §1

SGI-1776 + Vorinostat = compound: CN1CCC(CNc2ccc3ncc(-c4cccc(OC(F)(F)F)c4)n3n2)CC1 [SGI-1776] + O=C(CCCCCCC(=O)Nc1ccccc1)NO [Vorinostat] (partner 1 µM)
Outline: as §1

[3] = compound: C1COCCN1C2=NC(=NC3=C2OC4=C3C=CC=N4)C5=CC(=CC=C5)NC(=O)C6=CN=C(C=C6)N + O=C(c1cc(Cc2n[nH]c(=O)c3ccccc23)ccc1F)N1CCN(C(=O)C2CC2)CC1 [Olaparib] (partner 8 µM)
Outline: as §1

Row | Cell Line | relative viability ([1]; first compound 0.02 µM) | relative viability ([1]; first compound 0.06325 µM) | relative viability ([1]; first compound 0.2 µM) | relative viability ([1]; first compound 0.6325 µM) | relative viability ([1]; first compound 2 µM) | relative viability ([2]; first compound 0.02 µM) | relative viability ([2]; first compound 0.06325 µM) | relative viability ([2]; first compound 0.2 µM) | relative viability ([2]; first compound 0.6325 µM) | relative viability ([2]; first compound 2 µM) | relative viability (SGI-1776 + Vorinostat; first compound 0.08 µM) | relative viability (SGI-1776 + Vorinostat; first compound 0.8 µM) | relative viability (SGI-1776 + Vorinostat; first compound 2.53 µM) | relative viability (SGI-1776 + Vorinostat; first compound 8 µM) | relative viability ([3]; first compound 0.02 µM) | relative viability ([3]; first compound 0.06325 µM) | relative viability ([3]; first compound 0.2 µM) | relative viability ([3]; first compound 0.6325 µM) | relative viability ([3]; first compound 2 µM)
1 | HCC-15 | 1.29 | 1.28 | 1.24 | 1.06 | 0.982 | 0.859 | 0.929 | 0.881 | 0.792 | 0.575 | 0.856 | 0.853 | 0.726 | 0.722 | 0.757 | 0.775 | 0.735 | 0.671 | 0.628
2 | NCI-H727 | 0.528 | 0.678 | 0.812 | 0.602 | 0.755 | 1.14 | 1.22 | 1.05 | 1.22 | 1.12 | 1.26 | 1.11 | 1.39 | 0.983 | 0.723 | 0.802 | 0.746 | 0.605 | 0.606
3 | HCC-44 | 0.907 | 1.05 | 1.04 | 0.991 | 1.14 | 1.03 | 1.15 | 1.2 | 1.22 | 1.02 | 1.16 | 1.05 | 1.12 | 1.01 | 0.94 | 1.06 | 1.02 | 1.08 | 0.918
4 | NCI-H522 | 0.708 | 0.867 | 0.773 | 0.834 | 0.684 | 0.831 | 0.844 | 0.925 | 0.865 | 0.798 | 0.92 | 0.896 | 0.903 | 0.858 | 0.584 | 0.649 | 0.63 | 0.554 | 0.525
